Measured values reported in patent publication US20220106271A1, “2-BROMO-6-ALKOXYPHENYL-SUBSTITUTED PYRROLIN-2-ONES AND THEIR USE AS HERBICIDES” (Bayer Aktiengesellschaft, priority 2018, published 2022).

How the values were obtained:
Format in all cases: in vivo
Abutylon threophrasti = experiment: Pre-emergence herbicidal effect, greenhouse pot test; conditions: scored visually after 3 weeks, dosage 320 g/ha printed only in the upper half of Table 2
Text: (§1) 1. Pre-emergence herbicidal effect and crop plant compatibility Seeds of monocotyledonous and dicotyledonous weed plants and crop plants are laid out in sandy loam soil in wood-fibre pots and covered with soil. The compounds of the invention, formulated in the form of wettable powders (WP) or as emulsion concentrates (EC), are then applied to the surface of the covering soil as aqueous suspension or emulsion at a water application rate equating to 600 to 800 L/ha with addition of 0.2% wetting agent.
(§2) After the treatment, the pots are placed in a greenhouse and kept under good growth conditions for the trial plants. The damage to the test plants is scored visually after a test period of 3 weeks by comparison with untreated controls (herbicidal activity in percent (%): 100% activity=the plants have died, 0% activity=like control plants).

Alopecurus myosuroides [1] = experiment: as above; conditions: 320 g/ha, scored visually after 3 weeks, 100% = plants have died, 0% = like control plants
Text: as §1, §2

Amaranthus retroflexus = experiment: as above; conditions: scored visually after 3 weeks, dosage 320 g/ha printed only in the upper half of Table 2
Text: as §1, §2

Cyperus esculentus = experiment: as above; conditions: 320 g/ha, scored visually after 3 weeks, 100% = plants have died, 0% = like control plants
Text: as §1, §2

Echinochloa crus-galli [2] = experiment: as above; conditions: 320 g/ha, scored visually after 3 weeks, 100% = plants have died, 0% = like control plants
Text: as §1, §2

Hordeum murinum [3] = experiment: as above; conditions: scored visually after 3 weeks, dosage 320 g/ha printed only in the upper half of Table 2
Text: as §1, §2

Lolium rigidum [4] = experiment: as above; conditions: 320 g/ha, scored visually after 3 weeks, 100% = plants have died, 0% = like control plants
Text: as §1, §2

Polygonum convolvulus = experiment: as above; conditions: scored visually after 3 weeks, dosage 320 g/ha printed only in the upper half of Table 2
Text: as §1, §2

Setaria viridis [5] = experiment: as above; conditions: 320 g/ha, scored visually after 3 weeks, 100% = plants have died, 0% = like control plants
Text: as §1, §2

Stellaria media = experiment: as above; conditions: scored visually after 3 weeks, dosage 320 g/ha printed only in the upper half of Table 2
Text: as §1, §2

Veronica persica = experiment: as above; conditions: scored visually after 3 weeks, dosage 320 g/ha printed only in the upper half of Table 2
Text: as §1, §2

Viola tricolor = experiment: as above; conditions: scored visually after 3 weeks, dosage 320 g/ha printed only in the upper half of Table 2
Text: as §1, §2

Alopecurus myosuroides [6] = experiment: Post-emergence herbicidal effect, greenhouse pot test; conditions: 80 g/ha, post-emergence at one-leaf stage, assessed visually after about 3 weeks; 100% = plants have died, 0% = like control plants
Method: (§3) Seeds of monocotyledonous and dicotyledonous weed and crop plants are laid out in sandy loam soil in wood-fibre pots, covered with soil and cultivated in a greenhouse under good growth conditions. 2 to 3 weeks after sowing, the test plants are treated at the one-leaf stage. The compounds of the invention, formulated in the form of wettable powders (WP) or as emulsion concentrates (EC), are then sprayed onto the green parts of the plants as aqueous suspension or emulsion at a water application rate equating to 600 to 800 L/ha with addition of 0.2% wetting agent. After the test plants have been left to stand in the greenhouse under optimal growth conditions for about 3 weeks, the action of the preparations is assessed visually in comparison to untreated controls (herbicidal action in percent (%): 100% activity=the plants have died, 0% activity=like control plants).

Avena fatua [7] = experiment: as above; conditions: 80 g/ha, post-emergence at one-leaf stage, assessed visually after about 3 weeks; 100% = plants have died, 0% = like control plants
Method: as §3

Echinochloa crus-galli [8] = experiment: as above; conditions: 80 g/ha, post-emergence at one-leaf stage, assessed visually after about 3 weeks; 100% = plants have died, 0% = like control plants
Method: as §3

Hordeum murinum [9] = experiment: as above; conditions: 80 g/ha, post-emergence at one-leaf stage, assessed visually after about 3 weeks; 100% = plants have died, 0% = like control plants
Method: as §3

Lolium rigidum [10] = experiment: as above; conditions: 80 g/ha, post-emergence at one-leaf stage, assessed visually after about 3 weeks; 100% = plants have died, 0% = like control plants
Method: as §3

Setaria viridis [11] = experiment: as above; conditions: 80 g/ha, post-emergence at one-leaf stage, assessed visually after about 3 weeks; 100% = plants have died, 0% = like control plants
Method: as §3

Avena fatua [12] = experiment: Pre-emergence herbicidal effect, greenhouse pot test; conditions: 320 g/ha, scored visually after 3 weeks, 100% = plants have died, 0% = like control plants
Text: as §1, §2

CC#Cc1cc(Br)c(C2=C(O)C3(CCC(OC)CC3)NC2=O)c(OC)c1 (single isomer, unassigned) [Example 1.1, 3-[2-Bromo-6-methoxy-4-(prop-1-yn-1-yl)phenyl]-4-hydroxy-8-methoxy-1-azaspiro[4.5]dec-3-en-2-one]
100%: Pre-emergence action ABUTH (herbicidal activity in percent) (Abutylon threophrasti) | Pre-emergence action ALOMY (herbicidal activity in percent) (Alopecurus myosuroides [1]) | Pre-emergence action AMARE (herbicidal activity in percent) (Amaranthus retroflexus) | Pre-emergence action CYPES (herbicidal activity in percent) (Cyperus esculentus) | Pre-emergence action ECHCG (herbicidal activity in percent) (Echinochloa crus-galli [2]) | Pre-emergence action HORMU (herbicidal activity in percent) (Hordeum murinum [3]) | Pre-emergence action LOLRI (herbicidal activity in percent) (Lolium rigidum [4]) | Pre-emergence action POLCO (herbicidal activity in percent) (Polygonum convolvulus) | Pre-emergence action SETVI (herbicidal activity in percent) (Setaria viridis [5]) | Pre-emergence action STEME (herbicidal activity in percent) (Stellaria media) | Pre-emergence action VERPE (herbicidal activity in percent) (Veronica persica) | Pre-emergence action VIOTR (herbicidal activity in percent) (Viola tricolor) | Post-emergence action AVEFA (herbicidal action in percent) (Avena fatua [7]) | Post-emergence action ECHCG (herbicidal action in percent) (Echinochloa crus-galli [8]) | Post-emergence action HORMU (herbicidal action in percent) (Hordeum murinum [9]) | Post-emergence action LOLRI (herbicidal action in percent) (Lolium rigidum [10])
90%: Post-emergence action ALOMY (herbicidal action in percent) (Alopecurus myosuroides [6]) | Post-emergence action SETVI (herbicidal action in percent) (Setaria viridis [11])

CC#Cc1cc(Br)c(C2=C(O)C3(CCC(OC)CC3)NC2=O)c(OC)c1 (single isomer, unassigned) [Example 1.2]
90%: Post-emergence action ALOMY (herbicidal action in percent) (Alopecurus myosuroides [6]) | Post-emergence action AVEFA (herbicidal action in percent) (Avena fatua [7]) | Post-emergence action LOLRI (herbicidal action in percent) (Lolium rigidum [10]) | Post-emergence action SETVI (herbicidal action in percent) (Setaria viridis [11])
100%: Pre-emergence action ABUTH (herbicidal activity in percent) (Abutylon threophrasti) | Pre-emergence action ALOMY (herbicidal activity in percent) (Alopecurus myosuroides [1]) | Pre-emergence action AMARE (herbicidal activity in percent) (Amaranthus retroflexus) | Pre-emergence action AVEFA (herbicidal activity in percent) (Avena fatua [12]) | Pre-emergence action CYPES (herbicidal activity in percent) (Cyperus esculentus) | Pre-emergence action ECHCG (herbicidal activity in percent) (Echinochloa crus-galli [2]) | Pre-emergence action HORMU (herbicidal activity in percent) (Hordeum murinum [3]) | Pre-emergence action LOLRI (herbicidal activity in percent) (Lolium rigidum [4]) | Pre-emergence action POLCO (herbicidal activity in percent) (Polygonum convolvulus) | Pre-emergence action SETVI (herbicidal activity in percent) (Setaria viridis [5]) | Pre-emergence action STEME (herbicidal activity in percent) (Stellaria media) | Pre-emergence action VERPE (herbicidal activity in percent) (Veronica persica) | Pre-emergence action VIOTR (herbicidal activity in percent) (Viola tricolor) | Post-emergence action ECHCG (herbicidal action in percent) (Echinochloa crus-galli [8]) | Post-emergence action HORMU (herbicidal action in percent) (Hordeum murinum [9])

CC#Cc1cc(Br)c(C2=C(OC(=O)OCC)C3(CCC(OC)CC3)NC2=O)c(OC)c1 (stereo not drawn) [Example 1.3, 3-[2-Bromo-6-methoxy-4-(prop-1-yn-1-yl)phenyl]-8-methoxy-2-oxo-1-azaspiro[4.5]dec-3-en-4-yl ethyl carbonate]
100%: Pre-emergence action ABUTH (herbicidal activity in percent) (Abutylon threophrasti) | Pre-emergence action ALOMY (herbicidal activity in percent) (Alopecurus myosuroides [1]) | Pre-emergence action AMARE (herbicidal activity in percent) (Amaranthus retroflexus) | Pre-emergence action AVEFA (herbicidal activity in percent) (Avena fatua [12]) | Pre-emergence action CYPES (herbicidal activity in percent) (Cyperus esculentus) | Pre-emergence action ECHCG (herbicidal activity in percent) (Echinochloa crus-galli [2]) | Pre-emergence action HORMU (herbicidal activity in percent) (Hordeum murinum [3]) | Pre-emergence action LOLRI (herbicidal activity in percent) (Lolium rigidum [4]) | Pre-emergence action POLCO (herbicidal activity in percent) (Polygonum convolvulus) | Pre-emergence action SETVI (herbicidal activity in percent) (Setaria viridis [5]) | Pre-emergence action STEME (herbicidal activity in percent) (Stellaria media) | Pre-emergence action VERPE (herbicidal activity in percent) (Veronica persica) | Pre-emergence action VIOTR (herbicidal activity in percent) (Viola tricolor) | Post-emergence action ECHCG (herbicidal action in percent) (Echinochloa crus-galli [8]) | Post-emergence action HORMU (herbicidal action in percent) (Hordeum murinum [9]) | Post-emergence action LOLRI (herbicidal action in percent) (Lolium rigidum [10])
90%: Post-emergence action ALOMY (herbicidal action in percent) (Alopecurus myosuroides [6]) | Post-emergence action AVEFA (herbicidal action in percent) (Avena fatua [7]) | Post-emergence action SETVI (herbicidal action in percent) (Setaria viridis [11])

CC#Cc1cc(Br)c(C2=C(OC(=O)C(C)C)C3(CCC(OC)CC3)NC2=O)c(OC)c1 (stereo not drawn) [Example 1.4]
90%: Post-emergence action ALOMY (herbicidal action in percent) (Alopecurus myosuroides [6]) | Post-emergence action AVEFA (herbicidal action in percent) (Avena fatua [7]) | Post-emergence action ECHCG (herbicidal action in percent) (Echinochloa crus-galli [8]) | Post-emergence action SETVI (herbicidal action in percent) (Setaria viridis [11])
100%: Pre-emergence action ABUTH (herbicidal activity in percent) (Abutylon threophrasti) | Pre-emergence action ALOMY (herbicidal activity in percent) (Alopecurus myosuroides [1]) | Pre-emergence action AMARE (herbicidal activity in percent) (Amaranthus retroflexus) | Pre-emergence action AVEFA (herbicidal activity in percent) (Avena fatua [12]) | Pre-emergence action CYPES (herbicidal activity in percent) (Cyperus esculentus) | Pre-emergence action ECHCG (herbicidal activity in percent) (Echinochloa crus-galli [2]) | Pre-emergence action HORMU (herbicidal activity in percent) (Hordeum murinum [3]) | Pre-emergence action LOLRI (herbicidal activity in percent) (Lolium rigidum [4]) | Pre-emergence action POLCO (herbicidal activity in percent) (Polygonum convolvulus) | Pre-emergence action SETVI (herbicidal activity in percent) (Setaria viridis [5]) | Pre-emergence action STEME (herbicidal activity in percent) (Stellaria media) | Pre-emergence action VERPE (herbicidal activity in percent) (Veronica persica) | Pre-emergence action VIOTR (herbicidal activity in percent) (Viola tricolor) | Post-emergence action HORMU (herbicidal action in percent) (Hordeum murinum [9]) | Post-emergence action LOLRI (herbicidal action in percent) (Lolium rigidum [10])
